What was measured:
CCKB = biological target: T1, CCKB (Mus musculus, UniProt P56481); test: radioligand binding assay at the CCKB (CCK8 [sic]) receptor in mouse cortical membranes; settings: [125I]-CCK8S 200 pM, 150 min at 21±3° C.; for Ki: read-out: CCKB pKi (converted)
T1 construct: The cortex was dissected, weighed and homogenised in 40 ml ice-cold buffer; from tissue; host or cells: cerebral cortex membranes of male CD1 mice (Charles River)
T1 sequence (P56481 1-453): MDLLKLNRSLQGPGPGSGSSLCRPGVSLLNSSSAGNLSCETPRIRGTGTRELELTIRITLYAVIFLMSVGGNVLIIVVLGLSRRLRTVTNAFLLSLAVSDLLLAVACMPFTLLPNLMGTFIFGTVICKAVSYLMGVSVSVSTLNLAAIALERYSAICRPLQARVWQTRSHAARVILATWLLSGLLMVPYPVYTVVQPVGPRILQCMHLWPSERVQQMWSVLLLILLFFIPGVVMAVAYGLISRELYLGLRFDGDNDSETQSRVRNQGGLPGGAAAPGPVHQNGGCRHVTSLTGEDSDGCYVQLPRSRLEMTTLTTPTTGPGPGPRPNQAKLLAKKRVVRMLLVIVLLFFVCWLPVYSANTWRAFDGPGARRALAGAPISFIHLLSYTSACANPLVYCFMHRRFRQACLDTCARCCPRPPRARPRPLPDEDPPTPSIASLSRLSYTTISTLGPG
Method: The compounds of the examples were tested for binding at the CCK8 receptor in mouse cortical membranes by means of a radioligand binding assay. The procedure was as follows: The whole brains from male mice (CD1 22-25 g; Charles River) were removed and placed in ice-cold buffer (pH7.2@21±3° C.) of the following composition (mM); 10 HEPES, 130 NaCl, 4.7 KCl, 5 MgCl2, 1 EDTA and containing 0.25 g.1^-1 bacitracin. The cortex was dissected, weighed and homogenised in 40 ml ice-cold buffer using a Teflon-in-glass homogeniser. The homogenate was centrifuged at 39,800 g for 20 min at 4° C., the supernatant discarded and the pellet resuspended by homogenisation in fresh buffer. The homogenate was recentrifuged (39,800 g; 20 min@4° C.) and the final pellet was resuspended in HEPES buffer to give a tissue concentration of 2 mg.ml^-1 (original wet weight). The membranes ([…]) were incubated for 150 min at 21±3° C. in a final volume of 0.5 ml with HEPES buffer containing [^25 I]-CCK8S (0.05 ml; 200 pM NEN 2200 Ci.mmol^-1) and competing compound. Total and non-specific binding of [^125 I]-CCK8S were defined using 0.05 ml of buffer and 0.05 ml of […] L-365,260, respectively. The assay was terminated by rapid filtration through pre-soaked Whatman GF/B 35 filters using a Brandell Cell harvester. The filters were washed (3×3 ml) with ice-cold 5 mM Tris-HCl (pH7.4@4° C.) and bound radioactivity determined by counting (1 min.) in a gamma-counter.

CCKA = biological target: T2, CCKA (Cavia porcellus, UniProt Q63931); test: CCKA binding assay (guinea-pig pancreas membranes); settings: [125I]-CCK8(S) 200 pM, 0.375 μM PD134,308 present, 150 minutes at 21±3° C.; for Ki: read-out: CCKA pKi (converted)
T2 construct: The pancreatata were homogenised in 40 ml ice-cold HEPES buffer; from tissue; host or cells: pancreas membranes of male Dunkin Hartley guinea-pigs
T2 sequence (Q63931 1-430): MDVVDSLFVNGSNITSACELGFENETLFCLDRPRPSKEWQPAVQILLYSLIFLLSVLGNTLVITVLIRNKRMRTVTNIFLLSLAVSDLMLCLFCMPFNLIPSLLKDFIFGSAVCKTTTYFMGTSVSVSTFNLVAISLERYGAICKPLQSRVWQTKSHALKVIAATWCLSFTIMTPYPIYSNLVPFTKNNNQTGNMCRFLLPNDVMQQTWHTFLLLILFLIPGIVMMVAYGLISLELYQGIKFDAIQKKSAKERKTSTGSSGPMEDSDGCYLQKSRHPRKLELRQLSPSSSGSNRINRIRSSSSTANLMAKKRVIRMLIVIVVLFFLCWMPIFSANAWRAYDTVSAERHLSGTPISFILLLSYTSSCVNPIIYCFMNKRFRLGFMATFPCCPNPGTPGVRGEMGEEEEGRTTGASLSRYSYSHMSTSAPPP
Method: The compounds of the examples were also tested in a CCKA binding assay as follows:
The pancreatata were removed from male guinea-pigs (200-300 g; Dunkin Hartley) and placed in ice-cold HEPES buffer (pH 7.2@21 ±3° C.). The pancreatata were homogenised in 40 ml ice-cold HEPES buffer using a polytron (Brinkman, PT10, setting 10) 4×1 second. The homogenate was centrifuged at 39,800 g for 15 min at 4° C. The supernatant was discarded and the pellet re-suspended using a Teflon-in-glass homogeniser in 20 volumes of fresh buffer and re-centrifuged as above. The final pellet was re-suspended using a Teflon-in-glass homogeniser to a tissue concentration of 1 mg.ml^-1 (original wet weight), and filtered through 500 μm pore-size Nytex mesh.
The membranes (400 μl; containing 0.375 μM PD134,308) are incubated for 150 minutes at 21±3° C. in a final volume of 0.5 ml with HEPES buffer containing [^125 I]-CCK8 (S) (50 μl; 200 pM) and competing compound. Total and non-specific binding of [^125 I]-CCK^8 (S) are defined using 50 μl of buffer and 50 μl of 100 nM L-364,718respectively. The assay is terminated by rapid filtration through pre-soaked Whatman GF/B filters using a Brandell Cell Harvester. The filters were washed (3×3 ml) with ice-cold 50 mM Tris HCl (pH 7.4 at 4° C. and bound radioactivity is determined by counting (1 min) in a gamma counter.

Gastrin = biological target: T3, Gastrin (Rattus norvegicus, UniProt P30553); test: gastrin antagonist activity in an immature rat stomach assay (pentagastrin-stimulated acid secretion, isolated stomach); settings: cumulative pentagastrin dose-response curves, 60 min after drug; for Kb: read-out: Gastrin pKB (converted)
T3 construct: The stomach was excised and flushed with ca. 1 ml unbuffered physiological saline solution; from tissue; host or cells: isolated whole stomach of immature rats (33-50 g, ca. 21 days old)
T3 sequence (P30553 1-452): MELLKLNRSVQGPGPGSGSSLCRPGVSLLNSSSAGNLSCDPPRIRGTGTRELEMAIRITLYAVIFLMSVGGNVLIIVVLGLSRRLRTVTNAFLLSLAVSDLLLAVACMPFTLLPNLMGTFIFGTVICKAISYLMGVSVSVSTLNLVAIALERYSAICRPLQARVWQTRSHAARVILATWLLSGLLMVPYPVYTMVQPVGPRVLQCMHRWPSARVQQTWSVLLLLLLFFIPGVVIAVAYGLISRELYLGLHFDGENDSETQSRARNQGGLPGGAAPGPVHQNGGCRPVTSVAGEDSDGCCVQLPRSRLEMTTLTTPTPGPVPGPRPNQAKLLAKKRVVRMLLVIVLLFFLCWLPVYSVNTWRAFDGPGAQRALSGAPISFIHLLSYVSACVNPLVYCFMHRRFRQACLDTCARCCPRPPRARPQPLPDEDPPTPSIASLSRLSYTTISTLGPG
Method: The compounds of the examples were also tested for gastrin antagonist activity in an immature rat stomach assay. The procedure was follows:
The oesophagus of immature rats (33-50 g, ca. 21 days old) was ligated at the level of the cardiac sphincter and the duodenal sphincter was cannulated. The stomach was excised and flushed with ca. 1 ml unbuffered physiological saline solution. The fundus was punctured and cannulated. A further 4-5 ml of unbuffered solution was flushed through the stomach to ensure the preparation was not leaking. The stomach was lowered into a jacketed organ bath containing 40 ml of buffered solution containing 3×10^-8 M5methylfurmethide, maintained at 37° and gassed vigorously with 95% O2 /5% CO2. The stomach was continuously perfused at a rate of 1 ml min^-1 with unbuffered solution gassed with 100% O2 with the perfusate passing over an internally referenced pH-electrode fixed 12 cm above the stomach.
After 120 min of stabilisation the drugs were added directly to the serosal solution in the organ bath and after a further 60 min cumulative pentagastrin dose-response curves were started. Changes in acid secretion were monitored and the curves analysed according to Black et. al., Br. J. Pharmacol., 1985, 86, 581.

| Structure (SMILES) | Ki (CCKB) [µM] | Kb (Gastrin) [µM] | other results |
| --- | --- | --- | --- |
| O=C(Cc1ccccc1C(=O)NCC12CC3CC(CC(C3)C1)C2)N[C@@H](Cc1ccccc1)C(=O)Nc1cc(C(=O)O)cc(C(=O)O)c1 [Example 8, (1S-(3,5-dicarboxyphenylaminocarbonyl)-2-phenylethylaminocarbonylmethyl)-2-(1-adamantanemethylamino-carbonyl)benzene] | 0.158 |  | Ki (CCKA): 3.16 µM |
| O=C(O)c1cc(NC(=O)[C@H](Cc2ccccc2)N2Cc3cccc(C(=O)NCC45CC6CC(CC(C6)C4)C5)c3C2=O)cc(C(=O)O)c1 [Example 27, 7-(1-adamantanemethylaminocarbonyl)-2-(1S-(3,5-dicarboxyphenylaminocarbonyl)-2-phenylethyl) indol-1-one] | 0.126 |  | Ki (CCKA): 3.16 µM |
| O=C(Cc1ccccc1C(=O)N[C@@H](Cc1ccccc1)C(=O)Nc1cc(C(=O)O)cc(C(=O)O)c1)NCC12CC3CC(CC(C3)C1)C2 [Example 9, (1S-(3,5-dicarboxyphenylaminocarbonyl)-2-phenylethylaminocarbonyl)-2-(1-adamantanemethylaminocarbonyl-methyl)benzene] | 0.251 |  | Ki (CCKA): 3.16 µM |
| O=C(O)c1cc(NC(=O)[C@H](Cc2ccccc2)NC(=O)c2c(F)ccc(F)c2C(=O)NCC23CC4CC(CC(C4)C2)C3)cc(C(=O)O)c1 [Example 22, 1-(1S-(3,5-dicarboxyphenylamino-carbonyl)-2-phenylethylaminocarbonyl)-2-(1-adamantanemethyl-aminocarbonyl)-3,6-difluorobenzene] |  |  | CCKB pKi (CCKB): 7.3; Gastrin pKB (Gastrin): 7.5 |
| O=C(O)c1cc(NC(=O)[C@H](Cc2ccccc2)NC(=O)c2cc(O)ccc2C(=O)NCC23CC4CC(CC(C4)C2)C3)cc(C(=O)O)c1 [Example 23, 1-(1S-(3,5-dicarboxyphenylamino-carbonyl)-2-phenylethylaminocarbonyl)-2-(1-adamantanemethylamino-carbonyl)-5-hydroxybenzene] | 0.316 | 0.126 |  |
| CN(C)c1ccc(C(=O)N[C@@H](Cc2ccccc2)C(=O)Nc2cc(C(=O)O)cc(C(=O)O)c2)c(C(=O)NCC23CC4CC(CC(C4)C2)C3)c1 [Example 25, 1-(1S-(3,5-dicarboxyphenylamino-carbonyl)-2-phenylethylaminocarbonyl)-2-(l-adamantanemethyl-aminocarbonyl)-4-dimethylaminobenzene] | 0.00158 | 0.00251 |  |
| COc1ccc(C(=O)N[C@@H](Cc2ccccc2F)C(=O)Nc2cc(C(=O)O)cc(C(=O)O)c2)c(C(=O)NCC23CC4CC(CC(C4)C2)C3)c1 [Example 28, 1-(1S-(3,5-dicarboxyphenylamino-carbonyl)-2-(2-fluorophenyl)ethylaminocarbonyl)-2-(1-adamantane-methylaminocarbonyl)-4-methoxybenzene] | 0.0158 | 0.0126 |  |
| COc1ccc(C(=O)N[C@@H](Cc2ccccc2)C(=O)Nc2cc(C(=O)O)cc(C(=O)O)c2)c(C(=O)NCC23CC4CC(CC(C4)C2)C3)c1 [Example 18, 1-(1S-(3,5-dicarboxyphenylamino-carbonyl)-2-phenylethylaminocarbonyl)-2-(1-adamantanemethyl-aminocarbonyl)-4-methoxybenzene] | 0.0251 | 0.0316 |  |
| CNc1ccc(C(=O)N[C@@H](Cc2ccccc2)C(=O)Nc2cc(C(=O)O)cc(C(=O)O)c2)c(C(=O)NCC23CC4CC(CC(C4)C2)C3)c1 [Example 24, 1-(1S-(3,5-dicarboxyphenylamino-carbonyl)-2-phenylethylaminocarbonyl)-2-(1-adamantanemethyl-aminocarbonyl)-4-methylaminobenzene] | 0.00794 | 0.00501 |  |
| O=C(O)c1cc(NC(=O)[C@H](Cc2ccccc2)NC(=O)c2ccccc2C(=O)NCc2cccc3ccccc23)cc(C(=O)O)c1 [Example 5, (1R-(3,5-dicarboxyphenylaminocarbonyl)-2-phenylethylaminocarbonyl)-2-(1-naphthalenemethylaminocarbonyl)-benzene] |  |  | CCKB pKi (CCKB): 6.3; CCKA pKi (CCKA): 7.0 |
| COc1ccc(C(=O)NCC23CC4CC(CC(C4)C2)C3)c(C(=O)N[C@@H](Cc2ccccc2F)C(=O)Nc2cc(C(=O)O)cc(C(=O)O)c2)c1 [Example 29, 1-(1S-(3,5-dicarboxyphenylamino-carbonyl)-2-(2-fluorophenyl)ethylaminocarbonyl)-2-(1-adamantane-methylaminocarbonyl)-5-methoxybenzene] | 0.0158 | 1.58 |  |

From patent publication US5939437A, “CCK and gastrin receptor ligands” (James Black Foundation Limited, priority 1994, dated 1999)
